“And” between values parts separate entries of the source, which are not always exact repeats. Equal values may be shown once. Toxic doses and inconclusive results are not listed. How the source made its calls: active means survival T/C of 150% or more; inactive means T/C below 125% in these data.
System: CD2F1 mice, L1210 leukemia ip, survival T/C
Experiment: NCI In Vivo Anticancer Drug Screen. Data for tumor model L1210 Leukemia (intraperitoneal) in CD2F1 (CDF1) mice
Details: higher = longer survival
Procedure, shortened: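 Vehicle-treated tumor-bearing mice served as controls (C) for compound-treated mice (T). Reported figure is T divided by C.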

[1] = endpoint: mean survival time, dose: 100.0 mg/kg/injection, schedule: Q01DX009 (ip), vehicle: saline with Tween-80
[2] = endpoint: mean survival time, dose: 200.0 mg/kg/injection, schedule: Q01DX009 (ip), vehicle: saline with Tween-80
[3] = endpoint: mean survival time, dose: 400.0 mg/kg/injection, schedule: Q01DX009 (ip), vehicle: saline with Tween-80
[4] = endpoint: mean survival time, dose: 50.0 mg/kg/injection, schedule: Q01DX009 (ip), vehicle: saline with Tween-80
[5] = endpoint: mean survival time, dose: 100.0 mg/kg/injection, schedule: Q04DX003 (ip), vehicle: saline with Tween-80
[6] = endpoint: mean survival time, dose: 200.0 mg/kg/injection, schedule: Q04DX003 (ip), vehicle: saline with Tween-80
[7] = endpoint: mean survival time, dose: 100.0 mg/kg/injection, schedule: Q01DX001 (ip), vehicle: saline
[8] = endpoint: mean survival time, dose: 200.0 mg/kg/injection, schedule: Q01DX001 (ip), vehicle: saline
[9] = endpoint: mean survival time, dose: 400.0 mg/kg/injection, schedule: Q01DX001 (ip), vehicle: saline
[10] = endpoint: mean survival time, dose: 50.0 mg/kg/injection, schedule: Q04DX002 (ip), vehicle: saline with Tween-80
[11] = endpoint: mean survival time, dose: 100.0 mg/kg/injection, schedule: Q04DX002 (ip), vehicle: saline with Tween-80
[12] = endpoint: mean survival time, dose: 200.0 mg/kg/injection, schedule: Q04DX002 (ip), vehicle: saline with Tween-80
[13] = endpoint: mean survival time, dose: 25.0 mg/kg/injection, schedule: Q01DX009 (ip), vehicle: saline with Tween-80
[14] = endpoint: mean survival time, dose: 400.0 mg/kg/injection, schedule: Q04DX002 (ip), vehicle: saline with Tween-80
[15] = endpoint: mean survival time, dose: 12.5 mg/kg/injection, schedule: Q01DX009 (ip), vehicle: saline with Tween-80
[16] = endpoint: mean survival time, dose: 400.0 mg/kg/injection, schedule: Q04DX003 (ip), vehicle: saline with Tween-80
[17] = endpoint: mean survival time, dose: 12.5 mg/kg/injection, schedule: Q01DX005 (ip), vehicle: distilled water + Tween-80
[18] = endpoint: mean survival time, dose: 25.0 mg/kg/injection, schedule: Q01DX005 (ip), vehicle: distilled water + Tween-80
[19] = endpoint: mean survival time, dose: 50.0 mg/kg/injection, schedule: Q01DX005 (ip), vehicle: distilled water + Tween-80
[20] = endpoint: mean survival time, dose: 200.0 mg/kg/injection, schedule: Q01DX005 (ip), vehicle: distilled water + Tween-80
[21] = endpoint: mean survival time, dose: 100.0 mg/kg/injection, schedule: Q01DX005 (ip), vehicle: distilled water + Tween-80

Measured: T/C

COc1ccc(CNC(C#N)c2ccccc2)cc1OC (configuration not stated)
inactive: [1] 97 % of control | [2] 104 % of control | [3] 97 % of control

CCOP(=O)(OCC)ON1C(=O)c2cccc3cccc(c23)C1=O
inactive: endpoint: mean survival time, dose: 3.12 mg/kg/injection, schedule: Q01DX009 (ip), vehicle: Klucel (hydroxypropylcellulose) (HPC) 100 % of control | endpoint: mean survival time, dose: 6.25 mg/kg/injection, schedule: Q01DX009 (ip), vehicle: Klucel (hydroxypropylcellulose) (HPC) 95 % of control | endpoint: mean survival time, dose: 12.5 mg/kg/injection, schedule: Q01DX009 (ip), vehicle: Klucel (hydroxypropylcellulose) (HPC) 95 % of control | endpoint: mean survival time, dose: 25.0 mg/kg/injection, schedule: Q01DX009 (ip), vehicle: Klucel (hydroxypropylcellulose) (HPC) 93 % of control

COc1ccc(C(Br)C(C)Br)cc1 (configuration not stated)
inactive: [4] 97 % of control | [1] 94 % of control | [5] 98 % of control | [2] 97 % of control | [6] 98 % of control

O=C1CCCC/C1=N\Nc1ccccc1
inactive: [7] 91 % of control | [8] 89 % of control | [9] 97 % of control

C1CSCCSCCCSCCSC1
inactive: [10] 96 % of control | [11] 108 % of control | [12] 101 % of control

Cc1ccccc1C1(O)CCCCC1
inactive: [13] 114 % of control | [4] 98 % of control and 108 % of control | [1] 90 % of control | [5] 93 % of control | [2] 90 % of control | [6] 94 % of control

O=C1C2C3CCC(O3)C2C(=O)N1CC#CCN1C(=O)C2C3CCC(O3)C2C1=O (configuration not stated)
inactive: [11] 98 % of control | [12] 98 % of control | [14] 90 % of control

NCCS[As](=O)(O)SCCN
inactive: [15] 97 % of control | endpoint: mean survival time, dose: 12.5 mg/kg/injection, schedule: Q04DX003 (ip), vehicle: saline 101 % of control | [13] 103 % of control | endpoint: mean survival time, dose: 25.0 mg/kg/injection, schedule: Q04DX003 (ip), vehicle: saline 98 % of control | [4] 94 % of control | endpoint: mean survival time, dose: 50.0 mg/kg/injection, schedule: Q04DX003 (ip), vehicle: saline 101 % of control

CC(C)(CCC(=O)c1ccccc1)C(=O)O
inactive: [5] 90 % of control | [6] 94 % of control | [16] 87 % of control

NC(=O)c1nnc(-c2ccccn2)[nH]c1=O
inactive: endpoint: mean survival time, dose: 25.0 mg/kg/injection, schedule: Q01DX001 (ip), vehicle: Klucel (hydroxypropylcellulose) (HPC) 94 % of control | endpoint: mean survival time, dose: 50.0 mg/kg/injection, schedule: Q01DX001 (ip), vehicle: Klucel (hydroxypropylcellulose) (HPC) 98 % of control | endpoint: mean survival time, dose: 100.0 mg/kg/injection, schedule: Q01DX001 (ip), vehicle: Klucel (hydroxypropylcellulose) (HPC) 98 % of control

CN(C)C(=S)NNC(=O)c1ccc(Cl)cc1
inactive: endpoint: mean survival time, dose: 25.0 mg/kg/injection, schedule: Q01DX001 (ip), vehicle: saline with Tween-80 98 % of control

ClCc1ccc(CCl)c(Cl)c1Cl
inactive: [5] 96 % of control

Cc1cc(C2(c3cc(C)c(O)c(C(=O)O)c3)OS(=O)(=O)c3ccccc32)cc(C(=O)O)c1O
inactive: [7] 104 % of control | [8] 98 % of control | [9] 106 % of control

O=C1NC(=O)C(c2ccc(Cl)cc2)N1 (configuration not stated)
inactive: [1] 93 % of control | [2] 105 % of control | [3] 104 % of control

COc1ccc(OC)c(C=C(C(C)=O)C(C)=O)c1
inactive: endpoint: mean survival time, dose: 12.5 mg/kg/injection, schedule: Q01DX009 (ip), vehicle: water 95 % of control | endpoint: mean survival time, dose: 25.0 mg/kg/injection, schedule: Q01DX009 (ip), vehicle: water 102 % of control | endpoint: mean survival time, dose: 50.0 mg/kg/injection, schedule: Q01DX009 (ip), vehicle: water 100 % of control | endpoint: mean survival time, dose: 100.0 mg/kg/injection, schedule: Q01DX009 (ip), vehicle: water 95 % of control | endpoint: mean survival time, dose: 200.0 mg/kg/injection, schedule: Q01DX009 (ip), vehicle: water 88 % of control

O=S1(=O)CC(O)C(Br)C1 (configuration not stated)
inactive: [5] 103 % of control | [6] 101 % of control | [16] 92 % of control

COc1ccc(-c2nc(N)c3ncn(C4OC(CO)C(O)C4O)c3n2)cc1 (configuration not stated)
inactive: [17] 98 % of control | [18] 98 % of control | [19] 96 % of control | [20] 88 % of control

CC(C)(C)NSc1nc2ccccc2s1
inactive: [5] 96 % of control | [6] 96 % of control

[Cl][Pt+2][Cl].[NH-]CCc1ccccc1.[NH-]CCc1ccccc1
inactive: endpoint: mean survival time, dose: 12.5 mg/kg/injection, schedule: Q04DX003 (ip), vehicle: saline with Tween-80 103 % of control | endpoint: mean survival time, dose: 25.0 mg/kg/injection, schedule: Q04DX003 (ip), vehicle: saline with Tween-80 106 % of control | endpoint: mean survival time, dose: 50.0 mg/kg/injection, schedule: Q04DX003 (ip), vehicle: saline with Tween-80 106 % of control | [5] 103 % of control | [6] 117 % of control

CC(=O)OC1COC(n2cnc(C#N)c2C#N)C(OC(C)=O)C1OC(C)=O (configuration not stated)
inactive: [17] 101 % of control and 98 % of control | [18] 95 % of control and 103 % of control | [19] 93 % of control and 101 % of control | [21] 97 % of control | [20] 93 % of control and 104 % of control

COC(=O)CCN(c1ccccc1)c1ccc(C)cc1
inactive: [5] 97 % of control | [6] 97 % of control | [16] 97 % of control

COc1cc(OC)c(NC(=O)Oc2ccccc2F)cc1Cl
inactive: [4] 92 % of control | [1] 100 % of control | [2] 100 % of control

COc1cc(C2=N/C(=C\c3cc(Br)ccc3O)C(=O)O2)cc(OC)c1OC
inactive: [10] 88 % of control | [11] 95 % of control and 100 % of control | [12] 96 % of control | [14] 88 % of control and 100 % of control

c1ccc([CH2][Pb]([c]2ccccc2)([c]2ccccc2)[c]2ccccc2)cc1
inactive: [5] 100 % of control | [6] 97 % of control | [16] 91 % of control

CC(=O)OCC(C(=O)OC1CC2C3OC3C(C1)N2C)c1ccccc1 (configuration not stated)
inactive: endpoint: median survival time, dose: 12.5 mg/kg/injection, schedule: Q04DX003 (ip), vehicle: saline 100 % of control | endpoint: median survival time, dose: 25.0 mg/kg/injection, schedule: Q04DX003 (ip), vehicle: saline 100 % of control | endpoint: median survival time, dose: 50.0 mg/kg/injection, schedule: Q04DX003 (ip), vehicle: saline 88 % of control | endpoint: median survival time, dose: 100.0 mg/kg/injection, schedule: Q04DX003 (ip), vehicle: saline 88 % of control

Nc1nc(N)c(N=Nc2cccc(S(=O)(=O)O)c2)c(N)n1
inactive: [5] 107 % of control | [6] 101 % of control | [16] 101 % of control

O=c1[nH]cnc2c1nc(N1CCCC1)n2C1OC(CO)C(O)C1O (configuration not stated)
inactive: [17] 102 % of control | [18] 98 % of control | [19] 100 % of control | [21] 102 % of control

Cc1ccc(NC(=S)NC(=O)/C=C/c2ccccc2)cc1Cl
inactive: [10] 95 % of control and 97 % of control | [11] 91 % of control and 97 % of control | [12] 93 % of control and 94 % of control

NC(=O)C1CC1c1ccccc1 (configuration not stated)
inactive: endpoint: mean survival time, dose: 100.0 mg/kg/injection, schedule: Q01DX001 (ip), vehicle: saline with Tween-80 100 % of control | endpoint: mean survival time, dose: 200.0 mg/kg/injection, schedule: Q01DX001 (ip), vehicle: saline with Tween-80 102 % of control | endpoint: mean survival time, dose: 400.0 mg/kg/injection, schedule: Q01DX001 (ip), vehicle: saline with Tween-80 96 % of control

COc1cc(C(C)(C)C)cc(OC)c1C(O)(c1c(OC)cc(C(C)(C)C)cc1OC)c1c(OC)cc(C(C)(C)C)cc1OC
inactive: endpoint: mean survival time, dose: 6.25 mg/kg/injection, schedule: Q01DX009 (ip), vehicle: saline with Tween-80 100 % of control | [15] 104 % of control | [13] 104 % of control | [4] 102 % of control | [1] 105 % of control | [2] 88 % of control

CC(=O)Nc1ncc2ccccc2c1-c1ccc(NC(=O)CCCl)cc1
inactive: endpoint: mean survival time, dose: 25.0 mg/kg/injection, schedule: Q04DX003 (ip), vehicle: DMSO 101 % of control | endpoint: mean survival time, dose: 50.0 mg/kg/injection, schedule: Q04DX003 (ip), vehicle: DMSO 96 % of control | endpoint: mean survival time, dose: 100.0 mg/kg/injection, schedule: Q04DX003 (ip), vehicle: DMSO 94 % of control | endpoint: mean survival time, dose: 200.0 mg/kg/injection, schedule: Q04DX003 (ip), vehicle: DMSO 91 % of control | endpoint: mean survival time, dose: 400.0 mg/kg/injection, schedule: Q04DX003 (ip), vehicle: DMSO 94 % of control
